Data on one molecule can be found in ChEMBL document CHEMBL3832033, “DailyMed|setid=f21494ed-c5e8-4ddf-b140-ecd68c5c312b | CLARITHROMYCIN EXTENDED RELEASE - clarithromycin tablet, film coated, extended release|Ranbaxy Pharmaceuticals Inc”.

Data set [1] relates to Homo sapiens. Put plainly: (§1) Pharmacokinetic parameters for Clarithromycin evaluated after single oral administration of 1000 or 2 x 500 mg Clarithromycin extended-release tablets to 34 adult volunteers under fasting and feeding conditions. Format: ADME, organism-based. On the set-up: dose 1000 mg, dose 2 x 500, route oral. Conditions: in vivo, po, dosed compound id 21, dosed compound name CLARITHROMYCIN, gender male and female, regimen Single dose, tissue Plasma.

Data set [2] is described as follows: as §1. It is filed as ADME, organism-based. On the set-up: dose 1000 mg, dose 2 x 500, route oral. The note with it: human, in vivo, dosed compound id 21, dosed compound name CLARITHROMYCIN, gender male and female, regimen Single dose, tissue Plasma.

“And” between values parts separate entries of the source, which are not always exact repeats. Equal values may be shown once.

In the case of `CC[C@H]1OC(=O)[C@H](C)[C@@H](O[C@H]2C[C@@](C)(OC)[C@@H](O)[C@H](C)O2)[C@H](C)[C@@H](O[C@@H]2O[C@H](C)C[C@H](N(C)C)[C@H]2O)[C@](C)(OC)C[C@@H](C)C(=O)[C@H](C)[C@@H](O)[C@]1(C)O` [CLARITHROMYCIN], the Tmax (as a rule, the time from dosing to the highest level) in data set [1] (dietary status Fasting, dose 2 x 500 mg) turned out to be 9.588 h; in data set [1] (dietary status Fed, dose 1000 mg), 6.118 h; in data set [1] (dietary status Fed, dose 2 x 500 mg) it was 6.235 h; in data set [2] (dietary status Fasting, dose 1000 mg, route oral), 11 h. Also, the AUC(0-t) (in general, exposure summed from dosing to a finite time, without extrapolation to infinity) in data set [1] (dietary status Fasting) is 37615.9151 ng·h/mL; in data set [1] (dietary status Fed), 58485.5053 ng·h/mL and 60796.1185 ng·h/mL. Moreover, the Cmax (usually the highest concentration seen after dosing) in data set [1] (dietary status Fed) is 3478.3286 ng/mL; in data set [2] (po, 1000 mg, dietary status Fed), 3960 ng/mL. Moreover, the exposure (AUC) – broadly, the area under the concentration-time curve, a measure of exposure – in data set [2] (po, 1000 mg, dietary status Fasting, read-out: AUC(0-t)) came to 36600 ng·h/mL.
